Assay results as given in patent US20220330549A1, “USE OF N-BENZYLBENZAMIDE-BASED COMPOUND AS HERBICIDE” (Northwest A&F University, priority 2020, published 2022).

Columns and labels:
Format in all cases: in vivo
Convolvulus arvensis = assay: Field test for weed control in a corn field; settings: 150 g a.i./ha, after treatment
Procedure, shortened: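 Field trial of weed control against Convolvulus arvensis in corn, run following GB/T 17980.42-2000. Test agents were formulated as 10% emulsifiable concentrates and sprayed in water at 150 g(a.i.)/ha when corn plants had 2 to 5 leaves. Each treatment was replicated 4 times on 20 m^2 plots, and 25% mesotrione oil dispersion served as the control agent.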

Acalypha australis = assay: Field test for weed control in a corn field; settings: 150 g a.i./ha, after treatment
Procedure, shortened: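 Post-emergence field trial in a corn field following GB/T 17980.42-2000. Test compounds were formulated as 10% emulsifiable concentrates, diluted in water, and sprayed at 150 g(a.i.)/ha when corn had 2 to 5 leaves, with 4 replicates on 20 m^2 plots. Mesotrione 25% oil dispersion served as the control agent. Weed control was scored on a 1-9 scale.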

Solanum nigrum = assay: Field test for weed control in a corn field; settings: 150 g a.i./ha, 30 days after treatment
Procedure, shortened: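 Post-emergence weed control was tested in a corn field following GB/T 17980.42-2000. Compounds were made into 10% emulsifiable concentrates, diluted in water and sprayed at 150 g(a.i.)/ha when corn had 2 to 5 leaves after sowing, in 20 m^2 plots with 4 replicates. Effects on Solanum nigrum were graded on a 1-9 scale relative to the blank control area.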

Barnyard grass [1] = assay: Field test for weed control in a corn field; settings: 150 g a.i./ha, 30 days after treatment
Procedure, shortened: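 Corn-field efficacy trial following GB/T 17980.42-2000. Test compounds were formulated as 10% emulsifiable concentrates, diluted in water and sprayed post-emergence at 150 g(a.i.)/ha when corn had 2 to 5 leaves. Each treatment was replicated 4 times on 20 m^2 plots. Barnyard grass control was rated on a 1-9 damage scale.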

goosegrass = assay: Field test for weed control in a corn field; settings: 150 g a.i./ha, after treatment
Procedure, shortened: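 Weed control efficacy against goosegrass was tested in a corn field following GB/T 17980.42-2000. Compounds formulated as 10% emulsifiable concentrates were diluted in water and sprayed post-emergence at 150 g(a.i.)/ha when corn had 2 to 5 leaves, with 4 replicates of 20 m^2 plots. Herbicidal activity was rated on a 1-9 scale by damage symptoms and severity.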

Amaranthus retroflexus [2] = assay: Field test for weed control in a corn field; settings: 150 g a.i./ha, 30 days after treatment
Procedure, shortened: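 Field efficacy trial in a corn field following GB/T 17980.42-2000. Test compounds were formulated as 10% emulsifiable concentrates, diluted in water and sprayed post-emergence when corn had 2 to 5 leaves. Each treatment covered 20 m^2 with 4 replicates. A 25% mesotrione oil dispersion served as control. Damage to Amaranthus retroflexus was rated on a 1-9 scale against untreated blank plots.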

Portulaca oleracea = assay: Field test for weed control in a corn field; settings: 150 g a.i./ha, after treatment
Procedure, shortened: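 Field efficacy trial in corn following GB/T 17980.42-2000. Test compounds were prepared as 10% emulsifiable concentrates, diluted in water, and sprayed at 150 g(a.i.)/ha when corn had 2 to 5 leaves after sowing. Plots were 20 m^2 with 4 replicates per treatment. Herbicidal activity was scored on a 1-9 scale from weed damage symptoms and severity.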

Chenopodium album = assay: Field test for weed control in a corn field; settings: 150 g a.i./ha, after treatment
Procedure, shortened: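 A corn-field efficacy trial following GB/T 17980.42-2000 tested post-emergence control of Chenopodium album. Test compounds formulated as 10% emulsifiable concentrates were diluted in water and sprayed at 150 g(a.i.)/ha when the corn had 2 leaves to 5 leaves, on 20 m^2 plots with 4 replicates. Herbicidal activity was rated on a 1-9 scale by damage symptoms and severity.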

Digitaria sanguinalis [3] = assay: Field test for weed control in a corn field; settings: 150 g a.i./ha, after treatment
Procedure, shortened: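 Field trial in a corn field following GB/T 17980.42-2000. Test compounds were formulated as 10% emulsifiable concentrates, diluted in water and sprayed post-emergence at 150 g(a.i.)/ha when corn had 2 to 5 leaves, with 4 replicates on 20 m^2 plots. Control of Digitaria sanguinalis was scored on a 1-9 scale based on weed damage relative to the untreated blank area.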

nutgrass flatsedge = assay: Field test for weed control in a corn field; settings: 150 g a.i./ha, after treatment
Procedure, shortened: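 A corn field efficacy trial following GB/T 17980.42-2000 assessed post-emergence control of nutgrass flatsedge. Test compounds were formulated as 10% emulsifiable concentrates, diluted in water, and sprayed at 150 g(a.i.)/ha when the corn had 2 to 5 leaves. Each treatment had 4 replicates on 20 m^2 plots. Herbicidal activity was graded on a 1-9 scale by damage symptoms and severity.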

green bristlegrass [4] = assay: Field test for weed control in a corn field; settings: 150 g a.i./ha, after treatment
Procedure, shortened: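 Post-emergence weed control was tested in a corn field following GB/T 17980.42-2000. When the corn had 2 leaves to 5 leaves after sowing, 10% emulsifiable concentrates diluted in water were sprayed at 150 g(a.i.)/ha on 20 m^2 plots, four replicates per treatment. Effects on green bristlegrass were scored on a 1-9 damage scale relative to the blank control area.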

Humulus scandens [5] = assay: Herbicidal activity test for indoor pre-emergence soil treatment; settings: 150 g a.i./ha, visual inspection 21 days after treatment
Procedure, shortened: (§1)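 Pre-emergence soil spray per NY/T 1155.3-2006: weed seeds sown in moistened neutral sandy loam (organic content ≤2%), covered with 0.5–2.0 cm soil, then sprayed 24 h later with a water-diluted 10% emulsifiable concentrate at 150 g(a.i.)/ha. Visual rating after 21 days on a 1–9 scale.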

Cyperaceae = assay: Post-emergence herbicidal activity test in a paddy field; parameters: key: level scale; higher level = more weed left vs blank control; settings: 150 g a.i./ha (penoxsulam control 250 g(a.i.)/h)
Procedure, shortened: (§2)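 Efficacy was visually estimated 15 and 30 days after spraying, grading weed coverage relative to an untreated neighbouring plot (level 2 = 0 to 2.5%, level 9 = 67.6 to 100%). Treatments were 150 g(a.i.)/ha from 10% emulsifiable concentrates applied at the 4-5 leaf rice stage, four repeats of 50 m^2 each.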

Broadleaf weed = assay: as above; parameters: key: level scale; higher level = more weed left vs blank control; settings: 150 g a.i./ha (penoxsulam control 250 g(a.i.)/h)
Procedure, shortened: as §2

Gramineae = assay: as above; parameters: key: level scale; higher level = more weed left vs blank control; settings: 150 g a.i./ha (penoxsulam control 250 g(a.i.)/h)
Procedure, shortened: as §2

Barnyard grass [6] = assay: Herbicidal activity test for indoor post-emergence spraying on stems and leaves; parameters: key: grade level by weed remaining vs blank control, e.g. 5 = 10.1-15%; settings: 150 g a.i./ha, visual inspection 21 days after treatment
Procedure, shortened: (§3)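 Run per NY/T 1155.4-2006: weeds sown, grown in greenhouse, then sprayed post-emergence on stems and leaves. Effect scored visually 21 days after treatment on a graded level scale relative to weed in the blank control area.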

Amaranthus retroflexus [7] = assay: as above; parameters: key: grade level by weed remaining vs blank control, e.g. 5 = 10.1-15%; settings: 150 g a.i./ha, visual inspection 21 days after treatment
Procedure, shortened: as §3

Piemarker [8] = assay: as above; parameters: key: grade level by weed remaining vs blank control, e.g. 5 = 10.1-15%; settings: 150 g a.i./ha, visual inspection 21 days after treatment
Procedure, shortened: as §3

Digitaria sanguinalis [9] = assay: as above; parameters: key: grade level by weed remaining vs blank control, e.g. 5 = 10.1-15%; settings: 150 g a.i./ha, visual inspection 21 days after treatment
Procedure, shortened: as §3

green bristlegrass [10] = assay: as above; parameters: key: grade level by weed remaining vs blank control, e.g. 5 = 10.1-15%; settings: 150 g a.i./ha, visual inspection 21 days after treatment
Procedure, shortened: as §3

Humulus scandens [11] = assay: as above; parameters: key: grade level by weed remaining vs blank control, e.g. 5 = 10.1-15%; settings: 150 g a.i./ha, visual inspection 21 days after treatment
Procedure, shortened: as §3

Barnyard grass [12] = assay: Herbicidal activity test for indoor pre-emergence soil treatment; parameters: key: level 1-9; higher = more weed remaining vs blank control; settings: 150 g a.i./ha, visual inspection 21 days after treatment
Procedure, shortened: as §1

Piemarker [13] = assay: as above; parameters: key: level 1-9; higher = more weed remaining vs blank control; settings: 150 g a.i./ha, visual inspection 21 days after treatment
Procedure, shortened: as §1

green bristlegrass [14] = assay: as above; parameters: key: level 1-9; higher = more weed remaining vs blank control; settings: 150 g a.i./ha, visual inspection 21 days after treatment
Procedure, shortened: as §1

Amaranthus retroflexus [15] = assay: as above; parameters: key: 1-9 levels; higher = more weed remaining vs blank control; settings: 150 g a.i./ha, visual inspection 21 days after treatment
Procedure, shortened: as §1

Digitaria sanguinalis [16] = assay: as above; parameters: key: 1-9 levels; higher = more weed remaining vs blank control; settings: 150 g a.i./ha, visual inspection 21 days after treatment
Procedure, shortened: as §1

COc1ccc(OC)c(C(=O)NCc2cc(F)cc(Cl)c2)c1 [Compound A28]
Post-emergence weed control effect, Convolvulus arvensis (Convolvulus arvensis): 1 | Post-emergence weed control effect, Acalypha australis (Acalypha australis): 2 (equivalent to 0 to 2.5% of the weed in the blank control area) | Post-emergence weed control effect, Solanum nigrum (Solanum nigrum): 2 (equivalent to 0 to 2.5% of the weed in the blank control area) | Post-emergence weed control effect, Barnyard grass (Barnyard grass [1]): 1 | Post-emergence weed control effect, Goose grass (goosegrass): 2 (equivalent to 0 to 2.5% of the weed in the blank control area) | Post-emergence weed control effect, Amaranthus retroflexus (Amaranthus retroflexus [2]): 1 | Post-emergence weed control effect, Portulaca oleracea (Portulaca oleracea): 1 | Post-emergence weed control effect, Chenopodium album (Chenopodium album): 1 | Post-emergence weed control effect, Digitaria sanguinalis (Digitaria sanguinalis [3]): 2 (equivalent to 0 to 2.5% of the weed in the blank control area) | Post-emergence weed control effect, Nutgrass flatsedge (nutgrass flatsedge): 2 (equivalent to 0 to 2.5% of the weed in the blank control area) | Post-emergence weed control effect, Green bristlegrass (green bristlegrass [4]): 1 | Herbicidal Activity Humulus scandens (Humulus scandens [5]): 2 (equivalent to 0 to 2.5% of the weed in the blank control area) | Herbicidal activity 15 days after treatment Cyperaceae (Cyperaceae; 15 days after treatment): 2 (equivalent to 0 to 2.5% of the weed in the blank control area) | Herbicidal activity 30 days after treatment Cyperaceae (Cyperaceae; 30 days after treatment): 1 | Herbicidal activity 15 days after treatment Broadleaf weed (Broadleaf weed; 15 days after treatment): 1 | Herbicidal activity 30 days after treatment Broadleaf weed (Broadleaf weed; 30 days after treatment): 1 | Herbicidal activity 15 days after treatment Gramineae (Gramineae; 15 days after treatment): 2 (equivalent to 0 to 2.5% of the weed in the blank control area) | Herbicidal activity 30 days after treatment Gramineae (Gramineae; 30 days after treatment): 1 | Herbicidal Activity Barnyard grass (Barnyard grass [6]): 1 | Herbicidal Activity Amaranthus retroflexus (Amaranthus retroflexus [7]): 1 | Herbicidal Activity Piemarker (Piemarker [8]): 1 | Herbicidal Activity Digitaria sanguinalis (Digitaria sanguinalis [9]): 1 | Herbicidal Activity Green bristlegrass (green bristlegrass [10]): 1 | Herbicidal Activity Humulus scandens (Humulus scandens [11]): 1 | Herbicidal Activity Barnyard grass (Barnyard grass [12]): 1 | Herbicidal Activity Piemarker (Piemarker [13]): 1 | Herbicidal Activity Green bristlegrass (green bristlegrass [14]): 1 | Herbicidal Activity Amaranthus retroflexus (Amaranthus retroflexus [15]): 1 | Herbicidal Activity Digitaria sanguinalis (Digitaria sanguinalis [16]): 1
